Data taken from the supplement of paper PMC10307832.

Legend:
Assay in all cases: relative viability (nuclei count vs DMSO), 5 days (fraction); higher = more cells survive
Gemcitabine = compound: Nc1ccn([C@@H]2O[C@H](CO)[C@@H](O)C2(F)F)c(=O)n1 [Gemcitabine]
Method in brief: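 Lung cancer cell lines were seeded into 1536-well plates, kept overnight at 37 °C and pinned with five library-drug doses (not always all listed) spaced by √10. After 5 days, nuclei were Hoechst-stained, imaged at 4× and counted with MetaXpress. Viability is treated-well nuclei over vehicle-well nuclei, taken as a median across plates. Plates needed control CV below 25% and at least one doubling.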

Gemcitabine + Bortezomib = compound: Nc1ccn([C@@H]2O[C@H](CO)[C@@H](O)C2(F)F)c(=O)n1 [Gemcitabine] + CC(C)C[C@H](NC(=O)[C@H](Cc1ccccc1)NC(=O)c1cnccn1)B(O)O [Bortezomib] (partner 0.002 µM)
Method in brief: (§1)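 Lung cancer cell lines were seeded in 1536-well plates and dosed by pin tool the next day, with either a single drug or a fixed anchor-drug dose combined with five library-drug doses (not always all listed) spaced in √10 steps. Five days later, one step fixed the cells and stained their nuclei (final 0.05% Triton X-100, 1% formaldehyde, 1 ug/ml Hoechst), and nuclei were counted on 4× images. Relative viability is the nuclei count in treated wells divided by the count in vehicle wells, and each value is the median of duplicate plates.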

Gemcitabine + Navitoclax = compound: Nc1ccn([C@@H]2O[C@H](CO)[C@@H](O)C2(F)F)c(=O)n1 [Gemcitabine] + CC1(C)CCC(c2ccc(Cl)cc2)=C(CN2CCN(c3ccc(C(=O)NS(=O)(=O)c4ccc(N[C@H](CCN5CCOCC5)CSc5ccccc5)c(S(=O)(=O)C(F)(F)F)c4)cc3)CC2)C1 [Navitoclax] (partner 0.5 µM)
Method in brief: as §1

Gemcitabine + Foretinib = compound: Nc1ccn([C@@H]2O[C@H](CO)[C@@H](O)C2(F)F)c(=O)n1 [Gemcitabine] + COc1cc2c(Oc3ccc(NC(=O)C4(C(=O)Nc5ccc(F)cc5)CC4)cc3F)ccnc2cc1OCCCN1CCOCC1 [Foretinib] (partner 0.25 µM)
Method in brief: as §1

Gemcitabine + Lapatinib = compound: Nc1ccn([C@@H]2O[C@H](CO)[C@@H](O)C2(F)F)c(=O)n1 [Gemcitabine] + CS(=O)(=O)CCNCc1ccc(-c2ccc3ncnc(Nc4ccc(OCc5cccc(F)c5)c(Cl)c4)c3c2)o1 [Lapatinib] (partner 2 µM)
Method in brief: as §1

Gemcitabine + Pictilisib = compound: Nc1ccn([C@@H]2O[C@H](CO)[C@@H](O)C2(F)F)c(=O)n1 [Gemcitabine] + CS(=O)(=O)N1CCN(Cc2cc3nc(-c4cccc5[nH]ncc45)nc(N4CCOCC4)c3s2)CC1 [Pictilisib] (partner 1 µM)
Method in brief: as §1

Gemcitabine + Crizotinib = compound: Nc1ccn([C@@H]2O[C@H](CO)[C@@H](O)C2(F)F)c(=O)n1 [Gemcitabine] + C[C@@H](Oc1cc(-c2cnn(C3CCNCC3)c2)cnc1N)c1c(Cl)ccc(F)c1Cl [Crizotinib] (partner 1 µM)
Method in brief: as §1

Gemcitabine + Linsitinib = compound: Nc1ccn([C@@H]2O[C@H](CO)[C@@H](O)C2(F)F)c(=O)n1 [Gemcitabine] + C[C@]1(O)C[C@@H](c2nc(-c3ccc4ccc(-c5ccccc5)nc4c3)c3c(N)nccn32)C1 [Linsitinib] (partner 1 µM)
Method in brief: as §1

Gemcitabine + Alpelisib = compound: Nc1ccn([C@@H]2O[C@H](CO)[C@@H](O)C2(F)F)c(=O)n1 [Gemcitabine] + Cc1nc(NC(=O)N2CCC[C@H]2C(N)=O)sc1-c1ccnc(C(C)(C)C(F)(F)F)c1 [Alpelisib] (partner 2 µM)
Method in brief: as §1

Gemcitabine + Olaparib = compound: Nc1ccn([C@@H]2O[C@H](CO)[C@@H](O)C2(F)F)c(=O)n1 [Gemcitabine] + O=C(c1cc(Cc2n[nH]c(=O)c3ccccc23)ccc1F)N1CCN(C(=O)C2CC2)CC1 [Olaparib] (partner 8 µM)
Method in brief: as §1

Gemcitabine + Luminespib = compound: Nc1ccn([C@@H]2O[C@H](CO)[C@@H](O)C2(F)F)c(=O)n1 [Gemcitabine] + CCNC(=O)c1noc(-c2cc(C(C)C)c(O)cc2O)c1-c1ccc(CN2CCOCC2)cc1 [Luminespib] (partner 0.01 µM)
Method in brief: as §1

Gemcitabine + OSI-027 = compound: Nc1ccn([C@@H]2O[C@H](CO)[C@@H](O)C2(F)F)c(=O)n1 [Gemcitabine] + COc1cccc2cc(-c3nc([C@H]4CC[C@H](C(=O)O)CC4)n4ncnc(N)c34)[nH]c12 [OSI-027] (partner 0.5 µM)
Method in brief: as §1

Gemcitabine + Tozasertib = compound: Nc1ccn([C@@H]2O[C@H](CO)[C@@H](O)C2(F)F)c(=O)n1 [Gemcitabine] + Cc1cc(Nc2cc(N3CCN(C)CC3)nc(Sc3ccc(NC(=O)C4CC4)cc3)n2)n[nH]1 [Tozasertib] (partner 0.1 µM)
Method in brief: as §1

Gemcitabine + Dasatinib = compound: Nc1ccn([C@@H]2O[C@H](CO)[C@@H](O)C2(F)F)c(=O)n1 [Gemcitabine] + Cc1nc(Nc2ncc(C(=O)Nc3c(C)cccc3Cl)s2)cc(N2CCN(CCO)CC2)n1 [Dasatinib] (partner 0.075 µM)
Method in brief: as §1

Gemcitabine + Phenformin = compound: Nc1ccn([C@@H]2O[C@H](CO)[C@@H](O)C2(F)F)c(=O)n1 [Gemcitabine] + N=C(N)NC(=N)NCCc1ccccc1 [Phenformin] (partner 250 µM)
Method in brief: as §1

## Calu-6
Gemcitabine; 0.001 µM
  relative viability: 0.975
Gemcitabine; 0.003162 µM
  relative viability: 0.649
Gemcitabine; 0.01 µM
  relative viability: 0.33
Gemcitabine; 0.03162 µM
  relative viability: 0.147
Gemcitabine; 0.1 µM
  relative viability: 0.129
Gemcitabine + Bortezomib; first compound 0.001 µM
  relative viability: 1.04
Gemcitabine + Bortezomib; first compound 0.003162 µM
  relative viability: 0.57
Gemcitabine + Bortezomib; first compound 0.01 µM
  relative viability: 0.26
Gemcitabine + Bortezomib; first compound 0.03162 µM
  relative viability: 0.167
Gemcitabine + Bortezomib; first compound 0.1 µM
  relative viability: 0.159
Gemcitabine + Navitoclax; first compound 0.001 µM
  relative viability: 0.789
Gemcitabine + Navitoclax; first compound 0.003162 µM
  relative viability: 0.317
Gemcitabine + Navitoclax; first compound 0.01 µM
  relative viability: 0.111
Gemcitabine + Navitoclax; first compound 0.03162 µM
  relative viability: 0.0922
Gemcitabine + Navitoclax; first compound 0.1 µM
  relative viability: 0.0731
Gemcitabine + Foretinib; first compound 0.001 µM
  relative viability: 0.847
Gemcitabine + Foretinib; first compound 0.003162 µM
  relative viability: 0.566
Gemcitabine + Foretinib; first compound 0.01 µM
  relative viability: 0.403
Gemcitabine + Foretinib; first compound 0.03162 µM
  relative viability: 0.0993
Gemcitabine + Foretinib; first compound 0.1 µM
  relative viability: 0.0677
Gemcitabine + Lapatinib; first compound 0.001 µM
  relative viability: 1.03
Gemcitabine + Lapatinib; first compound 0.003162 µM
  relative viability: 0.799
Gemcitabine + Lapatinib; first compound 0.01 µM
  relative viability: 0.348
Gemcitabine + Lapatinib; first compound 0.03162 µM
  relative viability: 0.167
Gemcitabine + Lapatinib; first compound 0.1 µM
  relative viability: 0.126
Gemcitabine + Pictilisib; first compound 0.001 µM
  relative viability: 0.994
Gemcitabine + Pictilisib; first compound 0.003162 µM
  relative viability: 0.705
Gemcitabine + Pictilisib; first compound 0.01 µM
  relative viability: 0.223
Gemcitabine + Pictilisib; first compound 0.03162 µM
  relative viability: 0.162
Gemcitabine + Pictilisib; first compound 0.1 µM
  relative viability: 0.108
Gemcitabine + Crizotinib; first compound 0.001 µM
  relative viability: 0.784
Gemcitabine + Crizotinib; first compound 0.003162 µM
  relative viability: 0.585
Gemcitabine + Crizotinib; first compound 0.01 µM
  relative viability: 0.279
Gemcitabine + Crizotinib; first compound 0.03162 µM
  relative viability: 0.145
Gemcitabine + Crizotinib; first compound 0.1 µM
  relative viability: 0.123
Gemcitabine + Linsitinib; first compound 0.001 µM
  relative viability: 0.948
Gemcitabine + Linsitinib; first compound 0.003162 µM
  relative viability: 0.618
Gemcitabine + Linsitinib; first compound 0.01 µM
  relative viability: 0.234
Gemcitabine + Linsitinib; first compound 0.03162 µM
  relative viability: 0.129
Gemcitabine + Linsitinib; first compound 0.1 µM
  relative viability: 0.0919
Gemcitabine + Alpelisib; first compound 0.001 µM
  relative viability: 1.02
Gemcitabine + Alpelisib; first compound 0.003162 µM
  relative viability: 0.415
Gemcitabine + Alpelisib; first compound 0.01 µM
  relative viability: 0.224
Gemcitabine + Alpelisib; first compound 0.03162 µM
  relative viability: 0.13
Gemcitabine + Alpelisib; first compound 0.1 µM
  relative viability: 0.12
Gemcitabine + Olaparib; first compound 0.001 µM
  relative viability: 0.529
Gemcitabine + Olaparib; first compound 0.003162 µM
  relative viability: 0.465
Gemcitabine + Olaparib; first compound 0.01 µM
  relative viability: 0.24
Gemcitabine + Olaparib; first compound 0.03162 µM
  relative viability: 0.119
Gemcitabine + Olaparib; first compound 0.1 µM
  relative viability: 0.0919

## NCI-H1623
Gemcitabine; 0.001 µM
  relative viability: 0.743
Gemcitabine; 0.003162 µM
  relative viability: 0.255
Gemcitabine; 0.01 µM
  relative viability: 0.218
Gemcitabine; 0.03162 µM
  relative viability: 0.188
Gemcitabine; 0.1 µM
  relative viability: 0.178
Gemcitabine + Luminespib; first compound 0.001 µM
  relative viability: 0.43
Gemcitabine + Luminespib; first compound 0.003162 µM
  relative viability: 0.308
Gemcitabine + Luminespib; first compound 0.01 µM
  relative viability: 0.279
Gemcitabine + Luminespib; first compound 0.03162 µM
  relative viability: 0.236
Gemcitabine + Luminespib; first compound 0.1 µM
  relative viability: 0.234
Gemcitabine + Foretinib; first compound 0.001 µM
  relative viability: 0.741
Gemcitabine + Foretinib; first compound 0.003162 µM
  relative viability: 0.518
Gemcitabine + Foretinib; first compound 0.01 µM
  relative viability: 0.268
Gemcitabine + Foretinib; first compound 0.03162 µM
  relative viability: 0.229
Gemcitabine + Foretinib; first compound 0.1 µM
  relative viability: 0.194
Gemcitabine + OSI-027; first compound 0.001 µM
  relative viability: 0.349
Gemcitabine + OSI-027; first compound 0.003162 µM
  relative viability: 0.29
Gemcitabine + OSI-027; first compound 0.01 µM
  relative viability: 0.254
Gemcitabine + OSI-027; first compound 0.03162 µM
  relative viability: 0.245
Gemcitabine + OSI-027; first compound 0.1 µM
  relative viability: 0.237
Gemcitabine + Tozasertib; first compound 0.001 µM
  relative viability: 0.333
Gemcitabine + Tozasertib; first compound 0.003162 µM
  relative viability: 0.222
Gemcitabine + Tozasertib; first compound 0.01 µM
  relative viability: 0.173
Gemcitabine + Tozasertib; first compound 0.03162 µM
  relative viability: 0.16
Gemcitabine + Tozasertib; first compound 0.1 µM
  relative viability: 0.17
Gemcitabine + Dasatinib; first compound 0.001 µM
  relative viability: 0.485
Gemcitabine + Dasatinib; first compound 0.003162 µM
  relative viability: 0.431
Gemcitabine + Dasatinib; first compound 0.01 µM
  relative viability: 0.175
Gemcitabine + Dasatinib; first compound 0.03162 µM
  relative viability: 0.139
Gemcitabine + Dasatinib; first compound 0.1 µM
  relative viability: 0.143
Gemcitabine + Phenformin; first compound 0.001 µM
  relative viability: 0.526
Gemcitabine + Phenformin; first compound 0.003162 µM
  relative viability: 0.49
Gemcitabine + Phenformin; first compound 0.01 µM
  relative viability: 0.201
Gemcitabine + Phenformin; first compound 0.03162 µM
  relative viability: 0.369
Gemcitabine + Phenformin; first compound 0.1 µM
  relative viability: 0.164
